Results as given in patent US6410752B1, “Tocopherol derivatives and method for preparation thereof” (Pacific Corporation, priority 2000, dated 2002).
Read-outs that look alike come from different tables or passages of the source.

What was measured:
[1] = test system: Fibroblast cells of infant; details: 24 hours, none-treated sample = 100
Protocol: The effect on promoting biosynthesis of collagen was examined in vitro for assaying the effect of the present invention on skin, comparing to 3-amino propane phosphate.
Fibroblast cells of infant were inoculated on 24-wells(10^5 cells/well). They were washed with PBS once. And then, preparation example 1 and 3-aminopropane phosphate as a control were treated by the concentration shown Table 3, and were incubated at CO2 incubator for 24 hours. Each supernatant was collected, and the variation of procollagen was measured by using procollangen type (I) ELISA kit. The value of biosynthesis activity was calculated by comparing to 100, the value of none-treated sample.

rabbits [2] = details: 0.1 ml of sample diluted with saline to 2%
Protocol: (§1) If the tocopherol derivatives should be used as cosmetic ingredient, their safety in the living body is very important. […] The product of Preparation Example 1 was dissolved in squalene to produce 10% of solution sample, and the sample was employed in safety experiments.
1-4. Eye irritation test: The sample was diluted with saline to produce 2% of test sample, and 0.1 ml of the diluted solution was applied to the eye of each of nine (9) rabbits.

Guinea pigs = details: 10% solution in squalene
Protocol: as §1
1-5. Skin sensitization test: Test was carried out for six (6) (three males and three females) Guinea pigs according to Maggnusson and Kligman's procedure.

mice [3] = details: oral, 1 ml/kg of 10% solution in squalene
Protocol: as §1
Acute oral toxicity test in mice: 1 ml/kg of the sample was administrated to total ten (10) mice (male and female were separately five (5) mice).

[4] = Measurement of antioxidant activity using linoleic acid; details: 60° C. dark room, when weight no longer changed, NMR spectroscopy
Protocol: (§2) 2.0 g of pure linoleic acid was poured on a petri-dish, and here 40 mmol of each of tocopherol, preparation example 1 or tocopherol acetate was added. Then, the mixture solution was maintained in a dark room of 60° C. The oxidation ratio of linoleic oil was measured by daily measurement of the change in weight. The less is the changeability in weight of linoleic acid, the stronger is the antioxidant ability, because the increase in weight of linoleic acid is related to the oxidation of linoleic oil.
In the meantime, when the change in weight of linoleic acid was not observed any longer, the oxidation ratio was determined by using NMR spectroscopy.

[5] = Measurement of antioxidant activity using Lard oil; details: 60° C. dark room, when weight no longer changed, NMR spectroscopy
Protocol: as §2, with “Lard oil” for “pure linoleic acid”, “on” for “on a”, “Lard” for “linoleic”, “determined” for “measured”, “Lard oil,” for “linoleic acid,”, “Lard oil” for “linoleic acid”
In the meantime, when the change in weight of Lard oil was not observed any longer, the oxidation ratio was determined by using NMR spectroscopy.

mice [6] = details: percutaneous once, 0.2 ml/kg of 10% solution in squalene, two weeks of observation
Protocol: as §1
(§3) 1-2. Acute dermal toxicity test in mice and rabbits: 0.2 ml/kg of the sample was administrated percutaneously once to a total of ten (10) mice (five male and five female).

rabbits [7] = details: same experiment as in mice (percutaneous, 10% solution in squalene)
Protocol: as §1, §3

[8] = 60° C., in cetylethyl-hexanoate, six months, unaided eye
rabbits [9] = details: 0.1 ml of 10% solution in squalene on depilated back site
Protocol: as §1
1-3. Primary skin irritation test: 0.1 ml of test sample was applied to back site (2.5 cm×2.5 cm) of each of 12 rabbits depilated 24 hours before.

phosphodiesterase = details: 37° C., 24 hours, 1% aqueous solution of 1:9 mixture with Tween 20, HPLC
Protocol: The phosphodiesterase was used as biological enzyme, and 1% aqueous solution of 1:9 mixture of preparation example 1 and Tween 20 was prepared to use as an assay sample. After the stirring mixture of the above enzyme, assay sample and medium solution at a temperature of 37° C. for 24 hours, analysis for the hydrolysis ratio of tocopherol derivatives was carried out by using HPLC(MeOH:THF=9:1, R.T.=13.695 min, tocopherol).

[10] = 60° C., in cetylethyl-hexanoate; for Residual ration(%): HPLC
Protocol: Each 3 g of preparation example 1 product and tocopherol was dissolved with 100 ml of cetylethyl-hexanoate. […] Then, residual ratio of each compound was analyzed by using HPLC. Here, phenyl column, eluate solution of 70% aqueous THF solution including 10 mM SDS and 50 mM H3PO4, flow rate of 1 ml/min and detection of 286 nm was used as HPLC analysis condition of preparation example 1. And ODS column, MeOH as eluate solution, flow rate of 1 ml/min and detection of 290 nm was used as HPLC analysis condition of tocopherol for control.

subjects = details: repeat insult human patch test
Protocol: as §1
1-7. Repeat Insult Human Patch Test: Human patch test was carried out for subjects according to CTFA Guideline.

healthy women = details: human patch test, healthy women aged 20~28
Protocol: as §1
1-6. Human patch test: Human patch test was carried out for thirty (30) healthy women aged 20˜28 according to CTFA Guideline(The Cosmetic Toiletry and Fragrance Association, INC., Washington, D.C. 20036, 1991).

With `NCCCOP(=O)(O)O` [3-aminopropane phosphate, reference compound] the “Biosynthesis activity (%)” value ([1]; concentration 10^−4 %) was 146%.

With `Cc1c(C)c2c(c(C)c1OP(=O)(O)OCCCN)CCC(C)(CCCC(C)CCCC(C)CCCC(C)C)O2` (stereo not drawn) [Preparation Example 1, 3-aminopropyl-α-tocopherol phosphate] the eye irritation (rabbits [2]) was “no eye irritation on cornea, iris and conjunctiva was observed”, the “skin abnormality (sensitization)” value (Guinea pigs) was “no skin abnormality such as erythema, edema or freckles was observed” and the death of mice (mice [3]) was “no death of mice was observed”. The “difference in the body weight after administration” value (mice [3]) was “insignificant”, the “Biosynthesis activity (%)” value ([1]; concentration 10^−6 %) was 141% and the “oxidation ratio of linoleic acid” value [4] was “about 3%”. For the same compound, the “oxidation ratio of Lard oil” value [5] was “about 5%”, the “abnormal symptoms or changes in body weight” value (mice [6]) was “no mice administered with the sample exhibited abnormal symptoms or changes in body weight” and the “abnormal symptom and change of body weight” value (rabbits [7]) was “No abnormal symptom and change of body weight were observed”. The coloration degree [8] was “did not change in color”, the skin irritation (rabbits [9]) was “no skin irritation was observed” and the hydrolysis ratio (phosphodiesterase) was 40%. For the same compound, the “stability by quantitative analysis (NMR Spectroscopy), compared with tocopherol” value [10] was “more stable”, the “Residual ration(%)” value ([10]; Month 1) was 100% and the “Residual ration(%)” value ([10]; Month 2) was 100%. For the same compound, the “Residual ration(%)” value ([10]; Month 3) was 100%, the “Residual ration(%)” value ([10]; Month 4) was 100% and the “Residual ration(%)” value ([10]; Month 5) was 100%. The “Residual ration(%)” value ([10]; Month 6) was 100%, the “Residual ration(%)” value ([10]; Month head blank) was 100% and the “repeat irritation / sensitive irritation” value (subjects) was “no repeat irritation or no sensitive irritation was observed”. The primary irritation response (healthy women) was “primary irritation response was not observed”.

For `CC(=O)Oc1c(C)c(C)c2c(c1C)CCC(C)(CCC[C@H](C)CCC[C@H](C)CCCC(C)C)O2` (some centres unmarked) [tocopherol acetate], the “oxidation ratio of linoleic acid” value [4] was “about 83%” and the “oxidation ratio of Lard oil” value [5] was “about 90%”.

With tocopherol [reference compound] the “oxidation ratio of linoleic acid” value [4] was “about 83%”, the “oxidation ratio of Lard oil” value [5] was “about 90%” and the coloration degree [8] was “increase in coloration at four (4) months or more”. For the same compound, the “Residual ration(%)” value ([10]; Month 1) was 100%, the “Residual ration(%)” value ([10]; Month 2) was 97% and the “Residual ration(%)” value ([10]; Month 3) was 92%. For the same compound, the “Residual ration(%)” value ([10]; Month 4) was 88%, the “Residual ration(%)” value ([10]; Month 5) was 82% and the “Residual ration(%)” value ([10]; Month 6) was 76%. The “Residual ration(%)” value ([10]; Month head blank) was 100%.
